Assay results taken from patent publication US20160015700A1, “4-CYANO-N-(2-(4,4-DIMETHYLCYCLOHEX-1-EN-1-YL)-6-(2,2,6,6-TETRAMETHYLTETRAHYDRO-2H-PYRAN-4-YL)PYRIDIN-3-YL)-1H-IMIDAZOLE-2-CARBOXAMIDE FOR THE TREATMENT OF HODGKIN'S LYMPHOMA” (JANSSEN PHARMACEUTICA NV, priority 2013, published 2016).

Test system: classical Hodgkin's Lymphoma patient
Test: Case study: treatment of a classical Hodgkin's Lymphoma patient, response by CT/MRI scan and PET scan (Cheson criteria)
Assay type: in vivo, human
Settings: 150 mg orally 1 time a day, Cheson 2007 criteria
Procedure: A classical Hodgkin's Lymphoma patient, diagnosed with Stage II in Hodgkin Lymphoma in January 2006, and previously treated with radiotherapy and three different regimens of chemotherapy, including an autologous stem cell transplantation was treated with 150 mg of the compound of formula (I), administered orally 1 time a day. In addition to the compound of formula (I), the patient was taking the following medications and dosages: (a) DEKRISTOL (cholecalciferol), 20000 I.U. QOD for vitamin deficiency, (b) methylphenidate hydrochloride, 20 mg DAILY for fatigue, (c) ibuprofen, 600 mg PRN for back pain, and (d) VALORON N (tilidine) 50 IN 20 DROPS PRN for back pain.
Response to treatment was evaluated by tumor assessments using CT/MRI scan and PET scan, resulting in an individual response for each technique. In addition, an overall response evaluation was completed, taking into account both scan results. Response evaluations were completed according to the criteria as set forth in CHESON, B. D., et al., J. Clin. Oncology, 2007, pp579-586, Vol. 25(5).

CC1(C)CC=C(c2nc(C3CC(C)(C)OC(C)(C)C3)ccc2NC(=O)c2nc(C#N)c[nH]2)CC1 [compound of formula (I), 4-cyano-N-(2-(4,4-dimethylcyclohex-1-en-1-yl)-6-(2,2,6,6-tetramethyltetrahydro-2H-pyran-4-yl)pyridin-3-yl)-1H-imidazole-2-carboxamide]
response status at later follow-up (as of 13 Mar. 2013): still in complete response | overall response to treatment (evaluated after 121 days of treatment, previously treated classical Hodgkin's Lymphoma patient): complete response to treatment
